Measurements as given in US12685726B2, “Sulfoximines as inhibitors of NaV1.8” (Gruenenthal GmbH, priority 2022, dated 2026).

Target: T1, human NaV 1.8 (Homo sapiens, UniProt Q9Y5Y9)
T1 construct: expressed in transfected cells; host or cells: HEK (recombinant cell line)
Test: Automated whole-cell patch clamp (Qube384) voltage-clamp recordings of sodium currents in HEK-NaV1.8 cell line
Assay type: cell-based
Settings: read-out: Potency category (human NaV 1.8 IC50)
Experimental: Electrophysiology: Voltage-Clamp Recordings
The following NaV1.8 recombinant cell line was used for recordings: HEK-NaV1.8 (NM_006514.1) with b3 (NM_018400.3).
Sodium currents were measured using the patch clamp technique in the whole-cell configuration using the Qube384 (Sophion A/S, Copenhagen, Denmark) automated voltage clamp platform. “Multi hole” plates were used for the cell line expressing NaV1.8 while “single hole” plates were used for the recombinant cell lines expressing the other subtypes. Appropriate filters (for minimum seal resistance and minimum current size) and series resistance compensation (for high quality sodium channel recordings) were applied. Data was collected at ambient room temperature or 19° C.
The recording extracellular solution contained (in mM): NaCl 145 mM, KCl 4 mM, CaCl2 2 mM, MgCl2 1 mM, HEPES 10 mM, Glucose 10 mM, pH 7.4 (NaOH). The intracellular recording solution contained (in mM): CsF 120 mM, CsCl 20 mM, NaCl 10 mM, EGTA 10 mM, HEPES 10 mM, pH 7.2 (CsOH). Currents were recorded at 25 kHz sampling frequency and filtered at 5 kHz. Series resistance compensation was applied at 65%.
Vehicle (VEH) is the control condition where cells are exposed to 0.3% DMSO without compound. All runs include VEH controls being exposed to the same voltage protocols to assess non-compound related phenomena such as run down and then used to isolate compound dependent effects on currents.
To check for state-dependent inhibition, the following voltage-sequence was applied every 20 seconds:
From a resting membrane potential of −120 mV, the first test pulse (P1; 20 ms to −10 mV) was applied to check for channels in the Resting State followed by a brief recovery (100 ms to −120 mV), then holding the membrane voltage to V1/2 (4 seconds at voltage to obtain half the channel at Rest and half Inactivated) with a subsequent second test pulse (P2; 20 ms to −10 mV) to check for channels in the Inactivated State, followed by another brief recovery (20 ms to −120 mV) and a final third test pulse (P3; 20 ms to −10 mV) to check for recovered channels.
To check for frequency-dependent inhibition, a 10 Hz protocol and a 20 Hz protocol were applied; namely,
From a resting membrane potential of −120 mV, 40-pulses (10 ms to −10 mV) was applied at 10 Hz (at 100 ms between pulses) and then at 20 Hz (at 50 ms between pulses).
Each parameter was recorded (P1, P2, P3, P40 from 10 Hz and P40 from 20 Hz) during a control period (lasting 5 minutes) when establishing the baseline and during compound period (lasting ~12 minutes) when test compound (or vehicle) was applied. For each parameter, the value at the end of the compound period was normalized to the vehicle baseline; as follows
To adjust for any variance in the Na^+ current signal during the compound period (owing to cumulative inactivation independent of compound or shifts in biophysics over time), a dedicated segment of the recording wells in each 384 plate were dedicated to having only vehicle exposure. These vehicle-only recordings were used to correct for any apparent “run-up” or “run-down” in the experiment.
The adjusted inhibition was calculated as follows: […]
Percent inhibition was determined and IC50 values were calculated using a 4 parameter logistic model within XLFit Software (IDBS, Boston MA): F
[formula] where A and B are the maximal and minimum inhibition respectively, C is the IC50 concentration and D is the (Hill) slope.

T1 sequence (Q9Y5Y9 whole entry): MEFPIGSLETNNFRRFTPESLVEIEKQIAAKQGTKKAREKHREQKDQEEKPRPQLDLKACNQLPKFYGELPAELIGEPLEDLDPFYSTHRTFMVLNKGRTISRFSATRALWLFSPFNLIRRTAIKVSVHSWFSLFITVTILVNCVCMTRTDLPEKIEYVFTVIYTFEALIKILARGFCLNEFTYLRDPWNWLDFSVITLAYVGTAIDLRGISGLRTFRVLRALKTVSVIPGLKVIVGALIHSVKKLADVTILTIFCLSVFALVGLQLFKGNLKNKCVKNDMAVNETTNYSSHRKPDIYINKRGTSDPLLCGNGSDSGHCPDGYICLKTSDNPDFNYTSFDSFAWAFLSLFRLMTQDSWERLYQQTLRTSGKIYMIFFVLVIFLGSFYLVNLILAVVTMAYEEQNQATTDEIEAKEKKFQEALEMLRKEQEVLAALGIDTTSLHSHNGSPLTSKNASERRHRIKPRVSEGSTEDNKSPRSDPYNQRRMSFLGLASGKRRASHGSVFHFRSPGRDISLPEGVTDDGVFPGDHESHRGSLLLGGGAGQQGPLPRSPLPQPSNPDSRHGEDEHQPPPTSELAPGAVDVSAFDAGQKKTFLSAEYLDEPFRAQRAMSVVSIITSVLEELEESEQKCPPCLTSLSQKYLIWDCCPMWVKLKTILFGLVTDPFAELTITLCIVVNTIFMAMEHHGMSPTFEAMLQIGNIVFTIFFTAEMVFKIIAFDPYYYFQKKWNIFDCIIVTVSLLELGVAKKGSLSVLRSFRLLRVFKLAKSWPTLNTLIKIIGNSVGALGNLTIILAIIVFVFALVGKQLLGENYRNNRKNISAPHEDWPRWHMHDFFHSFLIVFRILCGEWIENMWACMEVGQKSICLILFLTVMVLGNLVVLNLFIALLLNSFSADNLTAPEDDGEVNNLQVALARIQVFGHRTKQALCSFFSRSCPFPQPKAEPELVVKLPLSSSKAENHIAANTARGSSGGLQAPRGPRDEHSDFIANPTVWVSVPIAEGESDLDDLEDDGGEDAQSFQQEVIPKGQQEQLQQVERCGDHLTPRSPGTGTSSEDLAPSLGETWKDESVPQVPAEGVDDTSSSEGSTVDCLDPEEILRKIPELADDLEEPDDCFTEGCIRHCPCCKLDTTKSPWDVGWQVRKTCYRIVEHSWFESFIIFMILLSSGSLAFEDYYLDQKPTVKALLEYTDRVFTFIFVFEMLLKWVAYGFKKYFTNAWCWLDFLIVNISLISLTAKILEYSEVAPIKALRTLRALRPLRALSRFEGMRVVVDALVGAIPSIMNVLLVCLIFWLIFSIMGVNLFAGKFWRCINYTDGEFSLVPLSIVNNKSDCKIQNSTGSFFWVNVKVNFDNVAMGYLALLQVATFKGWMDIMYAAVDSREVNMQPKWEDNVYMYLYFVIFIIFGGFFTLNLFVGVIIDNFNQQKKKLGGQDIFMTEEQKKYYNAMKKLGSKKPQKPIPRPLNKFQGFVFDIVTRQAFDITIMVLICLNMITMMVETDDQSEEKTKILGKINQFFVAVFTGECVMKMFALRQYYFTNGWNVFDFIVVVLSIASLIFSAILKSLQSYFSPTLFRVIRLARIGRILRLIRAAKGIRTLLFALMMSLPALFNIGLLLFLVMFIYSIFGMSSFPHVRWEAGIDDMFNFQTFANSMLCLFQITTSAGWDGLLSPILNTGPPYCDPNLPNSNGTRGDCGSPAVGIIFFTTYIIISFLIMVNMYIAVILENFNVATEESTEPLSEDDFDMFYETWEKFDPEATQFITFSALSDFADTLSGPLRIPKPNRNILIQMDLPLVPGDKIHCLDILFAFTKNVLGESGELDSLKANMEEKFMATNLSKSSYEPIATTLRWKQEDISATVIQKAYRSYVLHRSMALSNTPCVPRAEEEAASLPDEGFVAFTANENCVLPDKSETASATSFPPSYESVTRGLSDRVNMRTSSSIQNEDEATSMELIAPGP

IC50, ≤ 100 nM:
C[S@](=N)(=O)c1cc(NC(=O)c2c(C(F)(F)F)c(C3CC3)nn2C[C@@H]2CC23CC3)ccn1 (single isomer, unassigned) [Example 78b, 3-cyclopropyl-N-(2-(S-methylsulfonimidoyl)pyridin-4-yl)-1-(spiro[2.2]pentan-1-ylmethyl)-4-(trifluoromethyl)-1H-pyrazole-5-carboxamide]
CC1(Cn2nc(C3(C(F)(F)F)CC3)c(C(F)(F)F)c2C(=O)Nc2ccnc(S(C)(=N)=O)c2)CC(F)(F)C1 (single isomer, unassigned) [Example 144a, 1-((3,3-Difluoro-1-methylcyclobutyl)methyl)-N-(2-(S-methylsulfonimidoyl)pyridin-4-yl)-4-(trifluoromethyl)-3-(1-(trifluoromethyl)cyclopropyl)-1H-pyrazole-5-carboxamide]
CCS(=N)(=O)c1cc(NC(=O)c2c(C(F)(F)F)c(C3CC3)nn2CC2(C)CC(F)(F)C2)ccn1 (single isomer, unassigned) [Example 48a, 3-cyclopropyl-1-((3,3-difluoro-1-methylcyclobutyl)methyl)-N-(2-(ethylsulfonimidoyl)pyridin-4-yl)-4-(trifluoromethyl)-1H-pyrazole-5-carboxamide]
CC1(Cn2nc(C3CCC3)c(C(F)(F)F)c2C(=O)Nc2ccnc(S(C)(=N)=O)c2)CC(F)(F)C1 (single isomer, unassigned) [Example 56b, 3-cyclobutyl-1-((3,3-difluoro-1-methylcyclobutyl)methyl)-N-(2-(S-methylsulfonimidoyl)pyridin-4-yl)-4-(trifluoromethyl)-1H-pyrazole-5-carboxamide]
CC1(Cn2nc(C3CC3)c(C(F)(F)F)c2C(=O)Nc2ccnc(S(C)(=O)=NC[C@@H](O)CO)c2)CC(F)(F)C1 (stereo partly drawn) [Example 152, 3-Cyclopropyl-1-((3,3-difluoro-1-methylcyclobutyl)methyl)-N-(2-(N—((R)-2,3-dihydroxypropyl)-S-methylsulfonimidoyl)pyridin-4-yl)-4-(trifluoromethyl)-1H-pyrazole-5-carboxamide]
CC1(Cn2nc(C3(C#N)CC3)c(C(F)(F)F)c2C(=O)Nc2ccnc(S(C)(=N)=O)c2)CC(F)(F)C1 (single isomer, unassigned) [Example 68a, 3-(1-cyanocyclopropyl)-1-((3,3-difluoro-1-methylcyclobutyl)methyl)-N-(2-(S-methylsulfonimidoyl)pyridin-4-yl)-4-(trifluoromethyl)-1H-pyrazole-5-carboxamide]
CS(=N)(=O)c1cc(NC(=O)c2c(C(F)(F)F)c(C3CC3)nn2CC2C(F)(F)C23CCC3)ccn1 (single isomer, unassigned) [Example 136c, 3-Cyclopropyl-1-((2,2-difluorospiro[2.3]hexan-1-yl)methyl)-N-(2-(S-methylsulfonimidoyl)pyridin-4-yl)-4-(trifluoromethyl)-1H-pyrazole-5-carboxamide]
C[S@](=N)(=O)c1cc(NC(=O)c2c(C(F)(F)F)c(C3CC3)nn2C[C@H]2CC23CC3)ccn1 (single isomer, unassigned) [Example 78d, 3-cyclopropyl-N-(2-(S-methylsulfonimidoyl)pyridin-4-yl)-1-(spiro[2.2]pentan-1-ylmethyl)-4-(trifluoromethyl)-1H-pyrazole-5-carboxamide]
CC1(Cn2nc(C3CC3)c(C(F)(F)F)c2C(=O)Nc2ccnc(S(C)(=O)=NC#N)c2)CC(F)(F)C1 (single isomer, unassigned) [Example 142b, N-(2-(N-Cyano-S-methylsulfonimidoyl)pyridin-4-yl)-3-cyclopropyl-1-((3,3-difluoro-1-methylcyclobutyl)methyl)-4-(trifluoromethyl)-1H-pyrazole-5-carboxamide]
CC1(Cn2nc(C3CC3)c(C(F)(F)F)c2C(=O)Nc2ccnc(S(C)(=N)=O)c2)CC(F)(F)C1 (single isomer, unassigned) [Example 1a, 3-cyclopropyl-1-((3,3-difluoro-1-methylcyclobutyl)methyl)-N-(2-(S-methylsulfonimidoyl)pyridin-4-yl)-4-(trifluoromethyl)-1H-pyrazole-5-carboxamide]
CS(=N)(=O)c1cccc(NC(=O)c2c(C(F)(F)F)c(C34CC(C3)C4)nn2CC2C[C@@H]2C(F)F)c1 (stereo in doubt) [Example 139, 3-(Bicyclo[1.1.1]pentan-1-yl)-1-(((trans)-2-(difluoromethyl)cyclopropyl)methyl)-N-(3-(S-methylsulfonimidoyl)phenyl)-4-(trifluoromethyl)-1H-pyrazole-5-carboxamide]
CC1(Cn2nc(C3(F)CC3)c(C(F)(F)F)c2C(=O)Nc2ccc(F)c(S(C)(=N)=O)c2)CC(F)(F)C1 (single isomer, unassigned) [Example 126b, 1-((3,3-Difluoro-1-methylcyclobutyl)methyl)-N-(4-fluoro-3-(S-methylsulfonimidoyl)phenyl)-3-(1-fluorocyclopropyl)-4-(trifluoromethyl)-1H-pyrazole-5-carboxamide]
CS(=N)(=O)c1cc(NC(=O)c2c(C(F)(F)F)c(C3CC3)nn2C[C@@H]2CCC(F)(F)C2)ccn1 (single isomer, unassigned) [Example 17c]
C[S@](=N)(=O)c1cccc(NC(=O)c2c(C(F)(F)F)c(C3(F)CC3)nn2CC2C[C@H]2C(F)(F)F)c1 (single isomer, unassigned) [Example 134d, 3-(1-Fluorocyclopropyl)-N-(3-(S-methylsulfonimidoyl)phenyl)-4-(trifluoromethyl)-1-(((trans)-2-(trifluoromethyl)cyclopropyl)methyl)-1H-pyrazole-5-carboxamide]
CC1(Cn2nc(C(C)(C)F)c(C(F)(F)F)c2C(=O)Nc2ccnc(S(C)(=N)=O)c2)CC(F)(F)C1 (single isomer, unassigned) [Example 148b, 1-((3,3-Difluoro-1-methylcyclobutyl)methyl)-3-(2-fluoropropan-2-yl)-N-(2-(S-methylsulfonimidoyl)pyridin-4-yl)-4-(trifluoromethyl)-1H-pyrazole-5-carboxamide]
CC1(Cn2nc(C34CC(C3)C4)c(C(F)(F)F)c2C(=O)Nc2ccnc(S(C)(=N)=O)c2)CC(F)(F)C1 (single isomer, unassigned) [Example 58b, 3-(Bicyclo[1.1.1]pentan-1-yl)-1-((3,3-difluoro-1-methylcyclobutyl)methyl)-N-(2-(S-methylsulfonimidoyl)pyridin-4-yl)-4-(trifluoromethyl)-1H-pyrazole-5-carboxamide]
CC1(Cn2nc(C34CC(F)(C3)C4)c(C(F)F)c2C(=O)Nc2ccc(F)c(S(C)(=N)=O)c2)CC(F)(F)C1 (single isomer, unassigned) [Example 138b, 1-((3,3-Difluoro-1-methylcyclobutyl)methyl)-4-(difluoromethyl)-N-(4-fluoro-3-(S-methylsulfonimidoyl)phenyl)-3-(3-fluorobicyclo[1.1.1]pentan-1-yl)-1H-pyrazole-5-carboxamide]
Cc1c(C(C)(F)F)nn(CC23CC(C(F)(F)F)(C2)C3)c1C(=O)Nc1ccnc(S(C)(=N)=O)c1 (single isomer, unassigned) [Example 15b, 3-(1,1-difluoroethyl)-4-methyl-N-(2-(S-methylsulfonimidoyl)pyridin-4-yl)-1-((3-(trifluoromethyl)bicyclo[1.1.1]pentan-1-yl)methyl)-1H-pyrazole-5-carboxamide]
